This note sets out measurements from ChEMBL document CHEMBL1201862, “PubChem BioAssay data set” (2004).

What all share (assay): growth of human tumour cells (NCI), 48 h
Test [1] has as its system HOP-92.
Test [2] has as its system SW-620.
Test [3] relates to NCI-H23.
Test [4] has as its system NCI-H226.
The subject of test [5] is CAKI-1.
Test [6] has as its system HOP-62.
Test [7] deals with OVCAR-5.
The subject of test [8] is IGROV-1.
The subject of test [9] is UO-31.
Test [10] has as its system SF-539.
Test [11] deals with SK-MEL-2.
In test [12] the test system is SK-MEL-5.
The test system of test [13] is Hs-578T.
Test [14] relates to M14.
For test [15], the system named is UACC-62.
In test [16] the test system is MDA-MB-231.
Test [17] relates to OVCAR-4.
Test [18] has as its system RPMI-8226.
Test [19] relates to SF-295.
Test [20] has as its system NCI-H522.

Each structure is given as a SMILES string.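 Method: 48-hour compound exposure of cells in 96-well plates, five concentrations, linear interpolation of endpoints. GI50 is the concentration that inhibits growth by half.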 The source made the active and inactive calls. Cut-off read from the data, not from the text of the source: active = GI50 up to about 1.1 µM and inactive = higher.

As to `O=S(=O)(O)c1c(Cl)c(Cl)c(O)c2ncccc12`, the GI50 in [1] is 18.8 µM (inactive); in [2], 10 µM (inactive); in test [3] it was 11.2 µM (inactive); in test [4], 20.9 µM (inactive); in test [5], 18.6 µM (inactive); in test [6], 5 µM (inactive). In addition, the GI50 was 16.7 µM (inactive) in [7]; 4.2 µM (inactive) in [8]; 7.08 µM (inactive) in test [9]; 16 µM (inactive) in test [10]; 12.5 µM (inactive) in test [11]; 9.68 µM (inactive) in test [12]. The GI50 in [13] was 20.2 µM (inactive); in [14], 12 µM (inactive); in test [15], 8.34 µM (inactive); in test [16], 27.7 µM (inactive); in [17], 8.99 µM (inactive); in test [18], 10.6 µM (inactive). The values for the GI50 in test [19] and in test [20] were 7.06 µM (inactive) and 4.12 µM (inactive), respectively.
On to `CC(C)CCNC(=O)c1ccc(CNC(=O)/C=C/c2ccc3c(c2)-c2ccccc2C3)cc1`, for which the GI50 in test [1] was 41.2 µM (inactive); in test [2], 44.8 µM (inactive); in test [3] it was 94 µM (inactive); in [4] it was 60 µM (inactive); in test [5], 26.5 µM (inactive); in test [6], 19.1 µM (inactive). In addition, the GI50 in test [7] is > 100 µM (inactive); in [8], 58.7 µM (inactive); in test [9] it was 42 µM (inactive); in test [10] it was > 100 µM (inactive); in test [11] it was > 100 µM (inactive); in test [12], 36.9 µM (inactive). Besides, the GI50 in test [13] was 26.9 µM (inactive); in test [14] it was 74.3 µM (inactive); in [15], > 100 µM (inactive); in [16], 34.5 µM (inactive); in test [17], 22.9 µM (inactive); in [18], 44 µM (inactive). In addition, the GI50 in test [19] is 30.7 µM (inactive); in [20], 22.6 µM (inactive).
For the compound `CCCCCCCCC[C@@H]1C[C@@H]2CCC3C(C(=O)OCCCCNC(=O)OCc4ccccc4)=C(C)N=C(N1)N32` (stereo partly drawn), the GI50 in [1] was 2.78 µM (inactive); in test [2], 3.45 µM (inactive); in [3], 2.56 µM (inactive); in test [4] it was 3.58 µM (inactive); in test [5], 3.62 µM (inactive); in [6], 3.75 µM (inactive). Further, the GI50 is 5.78 µM (inactive) in [7]; 2.43 µM (inactive) in test [8]; 4.49 µM (inactive) in [9]; 3.86 µM (inactive) in test [10]; 1.92 µM (inactive) in test [11]; 1.59 µM (inactive) in [12]. In addition, the GI50 in test [13] is 2.51 µM (inactive); in [14], 2.55 µM (inactive); in test [15], 3.44 µM (inactive); in [16], 2.28 µM (inactive); in [17] it was 3.97 µM (inactive); in [18] it was 2.13 µM (inactive). The GI50 in test [19] is 3.44 µM (inactive); in [20], 2.52 µM (inactive).
On to `CCOC(=O)c1sc2nc(SC)nc3c2c1NCN3c1ccc2c(c1)OCCCO2`, for which the GI50 in test [1] is 79.3 µM (inactive); in test [2], 8.71 µM (inactive); in test [3], 70.8 µM (inactive); in test [4] it was 3.53 µM (inactive); in [5] it was > 100 µM (inactive); in test [6], 27.9 µM (inactive). Further, the GI50 is > 100 µM (inactive) in test [7]; > 100 µM (inactive) in [8]; 37.9 µM (inactive) in test [9]; 13.9 µM (inactive) in test [10]; > 100 µM (inactive) in test [11]; 12.2 µM (inactive) in test [12]. The GI50 in [13] was 2.57 µM (inactive); in [14], 38.2 µM (inactive); in [15], > 100 µM (inactive); in test [16], 24.3 µM (inactive); in test [17], > 100 µM (inactive); in [18] it was > 100 µM (inactive). For the same compound, the figures for the GI50 in test [19] and in [20] were 1.67 µM (inactive) and > 100 µM (inactive), respectively.
As for `COc1ccc2c(c1)c1ccc3c(c1n2C)C(=O)C=CC3=O`, the GI50 was 4.95 µM (inactive) in test [1]; 4.1 µM (inactive) in test [2]; 13 µM (inactive) in test [3]; 14.3 µM (inactive) in test [4]; 8.26 µM (inactive) in test [5]; 35.5 µM (inactive) in test [6]. The GI50 is 15.2 µM (inactive) in test [7]; 12.7 µM (inactive) in [8]; 11.4 µM (inactive) in test [9]; 13 µM (inactive) in test [10]; 17.2 µM (inactive) in test [11]; 19.3 µM (inactive) in test [12]. Further, the GI50 in test [13] is 8.09 µM (inactive); in [14], 10.4 µM (inactive); in [15] it was 12.8 µM (inactive); in [16] it was 5.18 µM (inactive); in [17] it was 8.38 µM (inactive); in test [18], 2.17 µM (inactive). For the same compound, the GI50 in test [19] is 24.3 µM (inactive); in test [20], 3.15 µM (inactive).
Turning to `CCCCCC(/C=C/C1CCC(=O)C1CC#C[Si](C)(C)C)OCc1ccccc1` (stereo not drawn), the GI50 was 12.1 µM (inactive) in test [1]; 24 µM (inactive) in test [2]; 22.2 µM (inactive) in test [3]; 30.5 µM (inactive) in test [4]; 17.9 µM (inactive) in test [5]; 19.1 µM (inactive) in test [6]. Further, the GI50 in test [7] is 19.9 µM (inactive); in test [8], 14.5 µM (inactive); in test [9], 15.5 µM (inactive); in [10], 12.1 µM (inactive); in test [11] it was 15.5 µM (inactive); in test [12], 13.2 µM (inactive). Moreover, the GI50 in test [13] is 17.9 µM (inactive); in test [14], 25 µM (inactive); in test [15], 13.5 µM (inactive); in test [16], 23.1 µM (inactive); in test [17] it was 26.9 µM (inactive); in [18] it was 14.7 µM (inactive). In addition, the results for the GI50 in [19] and in [20] were 17.1 µM (inactive) and 14 µM (inactive), respectively.
With `CC12OC1(C)C1C(=O)OCC1C2=O` (stereo not drawn), the GI50 in test [1] is > 100 µM (inactive); in test [2] it was 45.9 µM (inactive); in test [3], > 100 µM (inactive); in [4] it was 45.9 µM (inactive); in [5] it was 29.2 µM (inactive); in test [6] it was 41 µM (inactive). For the same compound, the GI50 is 59.4 µM (inactive) in test [7]; 32.4 µM (inactive) in test [8]; > 100 µM (inactive) in [9]; 32.5 µM (inactive) in test [10]; 50.5 µM (inactive) in test [11]; > 100 µM (inactive) in test [12]. Besides, the GI50 in test [13] is 22.1 µM (inactive); in [14] it was 49.4 µM (inactive); in [15] it was 99.3 µM (inactive); in test [16], > 100 µM (inactive); in [17], > 100 µM (inactive); in test [18] it was > 100 µM (inactive). Also, the GI50 in test [19] is 83.8 µM (inactive); in [20] it was 14.7 µM (inactive).
Turning to `CC(=O)O[C@H]1C[C@H](O[C@H]2[C@@H](O)C[C@H](O[C@H]3[C@@H](O)C[C@H](O[C@H]4CC[C@@]5(C)[C@H](CC[C@@H]6[C@@H]5C[C@@H](O)[C@]5(C)[C@@H](C7=CC(=O)OC7)CC[C@]65O)C4)O[C@@H]3C)O[C@@H]2C)O[C@H](C)[C@H]1O[C@@H]1O[C@H](CO)[C@@H](O)[C@H](O)[C@H]1O` [LANATOSIDE C], the GI50 in test [1] is 0.122 µM (active); in test [2] it was 0.0536 µM (active); in [3], 0.0193 µM (active); in test [4], 0.243 µM (active); in test [5], 0.0336 µM (active); in [6], 0.0264 µM (active). Further, the GI50 was 0.0869 µM (active) in test [7]; 0.0435 µM (active) in test [8]; 0.0559 µM (active) in test [9]; 0.0336 µM (active) in [10]; 0.165 µM (active) in test [11]; 0.0465 µM (active) in test [12]. For the same compound, the GI50 was 0.0252 µM (active) in [13]; 0.147 µM (active) in test [14]; 0.21 µM (active) in test [15]; 0.372 µM (active) in [16]; 0.0465 µM (active) in test [17]; 0.0368 µM (active) in [18]. The results for the GI50 in test [19] and in test [20] were 0.0426 µM (active) and 0.0137 µM (active), respectively.
As to `NS(=O)(=O)c1ccc(NC(=S)N/C=C2\C(=O)Oc3ccccc3C2=O)cc1`, the GI50 in [1] is 15.3 µM (inactive); in test [2], 40.1 µM (inactive); in [3], 38.5 µM (inactive); in test [4], 12.6 µM (inactive); in [5] it was 19.3 µM (inactive); in test [6], 20.8 µM (inactive). Moreover, the GI50 is 54.5 µM (inactive) in [7]; 18.9 µM (inactive) in [8]; 17.6 µM (inactive) in test [9]; 44 µM (inactive) in test [10]; 15.3 µM (inactive) in test [11]; 26.1 µM (inactive) in test [12]. The GI50 in test [13] was 17.5 µM (inactive); in test [14], 21.3 µM (inactive); in [15], 34.8 µM (inactive); in [16], 16 µM (inactive); in test [17], 43 µM (inactive); in test [18] it was 30.4 µM (inactive). Also, the GI50 in [19] was 32 µM (inactive); in test [20] it was 23.2 µM (inactive).
As to `Cc1cc(S(=O)(=O)Nc2nnc3c(C(F)(F)F)cc(Cl)cn23)c(S)cc1Cl`, the GI50 was > 100 µM (inactive) in test [1]; > 100 µM (inactive) in [2]; > 100 µM (inactive) in [4]; 56.6 µM (inactive) in test [5]; > 100 µM (inactive) in test [6]; > 100 µM (inactive) in [7]. Moreover, the GI50 in [8] was > 100 µM (inactive); in [9], 33 µM (inactive); in test [10] it was > 100 µM (inactive); in [11] it was 64.4 µM (inactive); in test [12] it was > 100 µM (inactive); in [13] it was > 100 µM (inactive). The GI50 in [14] is 67.1 µM (inactive); in [15] it was 41.5 µM (inactive); in test [16], > 100 µM (inactive); in test [17], 40.3 µM (inactive); in test [18] it was > 100 µM (inactive); in test [20], > 100 µM (inactive).
